Results reported in the supplement of paper PMC11208160.

Test: recombinant UMI read abundance after kanamycin selection (control-corrected) (log10(CPM+1)); higher = more efficient recombination; extreme values may be limits of the assay; sequences stand for … in AGTGCAGAGAAAATCGGCCAGTTTTCTCTGCCTGCAGTCCGCATGCCGTGGGACCCCTTGGGTTCTAACCTGTTGCCTAGATTTATGCAGCGGACTGCCTTTCTCCCAAAGTGATAAACCGG…AGGTTGGTTTCACT; site = the 11-nt donor
Method in brief: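 Values, expressed as log10(CPM+1), derive from recombinant UMI counts converted to CPM, averaged across replicates and scaled by control-derived factors. Plating was with IPTG (0.07 mM) plus kanamycin or unselected, two replicates each. The screen pooled donor and donor-binding-loop pairs for the IS621 bridge recombinase in Escherichia coli.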
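Further: IS621 bridge recombinase in Escherichia coli cells against a fixed T5 target plasmid.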

Row | Sequence | recombinant UMI read abundance (log10)
1 | CATGTAACATGGACCGGTTTTCCCGGTAATCCGTATTTGCT (site GATGTAACTAG) | 0.28
2 | CATGTAACATGGACCGGTTTTCCCGGTAATCCGTATTTGCT (site TATGTAACTAG) | 0.869
3 | CATGTGTCATGGACCGGTTTTCCCGGTAATCCGTATTTGAC (site AATGTGTCTGT) | 0
4 | CATGTGTCATGGACCGGTTTTCCCGGTAATCCGTATTTGAC (site CATGTGTCTGT) | 0.602
5 | CATGTGTCATGGACCGGTTTTCCCGGTAATCCGTATTTGAC (site GATGTGTCTGT) | 0
6 | CATGTGTCATGGACCGGTTTTCCCGGTAATCCGTATTTGAC (site TATGTGTCTGT) | 0.00981
7 | CATGTTCCATGGACCGGTTTTCCCGGTAATCCGTATTTGTG (site CATGTTCCTCA) | 0.0131
8 | CATTAGTCATGGACCGGTTTTCCCGGTAATCCGTATTTGTT (site CATTAGTCTAA) | 2.03
9 | CATTCAACATGGACCGGTTTTCCCGGTAATCCGTATTTGCC (site CATTCAACTGG) | 0.426
10 | CATTCCTCATGGACCGGTTTTCCCGGTAATCCGTATTTGCC (site CAATCCTCTGG) | 1.59
11 | CATTCCTCATGGACCGGTTTTCCCGGTAATCCGTATTTGCC (site CACTCCTCTGG) | 1.09
12 | CATTCCTCATGGACCGGTTTTCCCGGTAATCCGTATTTGCC (site CAGTCCTCTGG) | 0
13 | CATTCCTCATGGACCGGTTTTCCCGGTAATCCGTATTTGCC (site CATTCCTCTGG) | 1.47
14 | CATTCGACATGGACCGGTTTTCCCGGTAATCCGTATTTGCG (site CATTCGACTCG) | 0.32
15 | CATTGACCATGGACCGGTTTTCCCGGTAATCCGTATTTGAG (site CATTGACCTCT) | 0.0215
16 | CATTGCACATGGACCGGTTTTCCCGGTAATCCGTATTTGTA (site CATTGCACTTA) | 0.726

Row | Sequence | recombinant UMI read abundance (log10)
17 | CATTGGACATGGACCGGTTTTCCCGGTAATCCGTATTTGCC (site CATTGGACTGG) | 1.73
18 | CATTTATCATGGACCGGTTTTCCCGGTAATCCGTATTTGCA (site GCCCGTCCTAC) | 0.031
19 | CATTTATCATGGACCGGTTTTCCCGGTAATCCGTATTTGGC (site CATTTATCTGC) | 1.72
20 | CATTTCCCATGGACCGGTTTTCCCGGTAATCCGTATTTGCT (site CAATTCCCTAG) | 0.464
21 | CATTTCCCATGGACCGGTTTTCCCGGTAATCCGTATTTGCT (site CACTTCCCTAG) | 0.691
22 | CATTTCCCATGGACCGGTTTTCCCGGTAATCCGTATTTGCT (site CAGTTCCCTAG) | 0.0164
23 | CATTTCCCATGGACCGGTTTTCCCGGTAATCCGTATTTGCT (site CATTTCCCTAG) | 0.788
24 | CATTTGGCATGGACCGGTTTTCCCGGTAATCCGTATTTGTG (site AATTTGGCTCA) | 0.0432
25 | CATTTGGCATGGACCGGTTTTCCCGGTAATCCGTATTTGTG (site CATTTGGCTCA) | 0.552
26 | CATTTGGCATGGACCGGTTTTCCCGGTAATCCGTATTTGTG (site GATTTGGCTCA) | 0.00627
27 | CATTTGGCATGGACCGGTTTTCCCGGTAATCCGTATTTGTG (site TATTTGGCTCA) | 0.106
28 | CCAAACACATGGACCGGTTTTCCCGGTAATCCGTATTTGAT (site CCAAACACTAT) | 1.8
29 | CCAAAGGCATGGACCGGTTTTCCCGGTAATCCGTATTTGGC (site CCAAAGGCTGC) | 0
30 | CCAAATACATGGACCGGTTTTCCCGGTAATCCGTATTTGGC (site CCAAATACTGC) | 0
31 | CCAAATACATGGACCGGTTTTCCCGGTAATCCGTATTTGGC (site CCCAATACTGC) | 0
32 | CCAAATACATGGACCGGTTTTCCCGGTAATCCGTATTTGGC (site CCGAATACTGC) | 0
